In patent US11225465B2, “Albicidin derivatives, their use and synthesis” (TECHNISCHE UNIVERSITÄT BERLIN, priority 2017, dated 2022):

Tests used:
Assay in all cases: MHK against further strains (Table 2)
Format in all cases: cell-based
[1] = system: Acinetobacter baumannii PEG 10-12-26; details: Nr. 22 Acinetobacter baumannii PEG 10-12-26, clinical isolate
Procedure: (§1) The tests were performed using the micro dilution method.
(§2) The determination of MIC values was performed according to the ninth edition of the Approved Standard M07-A9 (CLSI. Methods for Dilution Antimicrobial Susceptibility Tests for Bacteria That Grow Aerobically; Approved Standard—Ninth Edition. CLSI document M07-A9. Wayne, Pa.: Clinical and Laboratory Standards Institute; 2012.)

[2] = system: Acinetobacter baumannii PEG 10-57-24; details: Nr. 24 Acinetobacter baumannii PEG 10-57-24, clinical isolate
Procedure: as §1, §2

[3] = system: Acinetobacter baumannii PEG 10-57-31; details: Nr. 23 Acinetobacter baumannii PEG 10-57-31, clinical isolate; KBE/ml 2.60E+05
Procedure: as §1, §2

[4] = system: Acinetobacter baumannii PEG 10-86-5; details: Nr. 25 Acinetobacter baumannii PEG 10-86-5, clinical isolate; KBE/ml 2.00E+05
Procedure: as §1, §2

[5] = system: Enterobacter aerogenes 220-1-22; details: Nr. 18 Enterobacter aerogenes 220-1-22, clinical isolate
Procedure: as §1, §2

[6] = system: Enterobacter asburiae PEG-13-74-62; details: Nr. 19 Enterobacter asburiae PEG-13-74-62, clinical isolate; KBE/ml 8.20E+05
Procedure: as §1, §2

[7] = system: Enterobacter cloacae PEG-10-52-78; details: Nr. 17 Enterobacter cloacae PEG-10-52-78, clinical isolate
Procedure: as §1, §2

[8] = system: Enterococcus faecium PEG 13-17-59; details: Nr. 29 Enterococcus faecium PEG 13-17-59, clinical isolate
Procedure: as §1, §2

[9] = system: Enterococcus faecium PEG 13-73-65; details: Nr. 30 Enterococcus faecium PEG 13-73-65, clinical isolate
Procedure: as §1, §2

[10] = system: Enterococcus faecium PEG 13-9-13; details: Nr. 28 Enterococcus faecium PEG 13-9-13, clinical isolate
Procedure: as §1, §2

[11] = system: Escherichia coli 100-2-49; details: Nr. 2 Escherichia coli 100-2-49, clinical isolate; KBE/ml 3.80E+05
Procedure: as §1, §2

[12] = system: Escherichia coli 100-2-56; details: Nr. 3 Escherichia coli 100-2-56, clinical isolate
Procedure: as §1, §2

[13] = system: Escherichia coli ATCC 25922; details: Nr. 1 Escherichia coli ATCC 25922; KBE/ml 2.80E+05
Procedure: as §1, §2

[14] = system: Escherichia coli PEG 10-2-81; details: Nr. 10 Escherichia coli PEG 10-2-81, clinical isolate
Procedure: as §1, §2

[15] = system: Escherichia coli PEG 10-79-22; details: Nr. 11 Escherichia coli PEG 10-79-22, clinical isolate
Procedure: as §1, §2

[16] = system: Klebsiella oxytoca PEG-10-45-54; details: Nr. 16 Klebsiella oxytoca PEG-10-45-54, clinical isolate; KBE/ml 4.40E+05
Procedure: as §1, §2

[17] = system: Klebsiella oxytoca PEG-10-75-18; details: Nr. 15 Klebsiella oxytoca PEG-10-75-18, clinical isolate
Procedure: as §1, §2

[18] = system: Klebsiella pneumoniae 310-1-54; details: Nr. 14 Klebsiella pneumoniae 310-1-54, clinical isolate
Procedure: as §1, §2

[19] = system: Klebsiella pneumoniae PEG-10-20-4; details: Nr. 4 Klebsiella pneumoniae PEG-10-20-4, clinical isolate
Procedure: as §1, §2

[20] = system: Klebsiella pneumoniae PEG-10-48-8; details: Nr. 12 Klebsiella pneumoniae PEG-10-48-8, clinical isolate
Procedure: as §1, §2

[21] = system: Klebsiella pneumoniae PEG-10-75-61; details: Nr. 13 Klebsiella pneumoniae PEG-10-75-61, clinical isolate; KBE/ml 4.00E+05
Procedure: as §1, §2

[22] = system: Klebsiella pneumoniae PEG-10-90-74; details: Nr. 5 Klebsiella pneumoniae PEG-10-90-74, clinical isolate; KBE/ml 4.00E+05
Procedure: as §1, §2

[23] = system: Pseudomonas aeruginosa ATCC 27853; details: Nr. 6 Pseudomonas aeruginosa ATCC 27853; KBE/ml 5.60E+05
Procedure: as §1, §2

[24] = system: Pseudomonas aeruginosa PEG-10-2-61; details: Nr. 7 Pseudomonas aeruginosa PEG-10-2-61, clinical isolate
Procedure: as §1, §2

[25] = system: Pseudomonas aeruginosa PEG-10-44-76; details: Nr. 21 Pseudomonas aeruginosa PEG-10-44-76, clinical isolate
Procedure: as §1, §2

[26] = system: Pseudomonas aeruginosa PEG-10-47-57; details: Nr. 20 Pseudomonas aeruginosa PEG-10-47-57, clinical isolate
Procedure: as §1, §2

[27] = system: Staphylococcus aureus ATCC 29213; details: Nr. 8 Staphylococcus aureus ATCC 29213; KBE/ml 6.60E+05
Procedure: as §1, §2

[28] = system: Staphylococcus aureus PEG 10-38-22; details: Nr. 9 Staphylococcus aureus PEG 10-38-22, clinical isolate
Procedure: as §1, §2

[29] = system: Staphylococcus aureus PEG 13-18-19; details: Nr. 26 Staphylococcus aureus PEG 13-18-19, clinical isolate
Procedure: as §1, §2

[30] = system: Staphylococcus aureus PEG 13-71-26; details: Nr. 27 Staphylococcus aureus PEG 13-71-26, clinical isolate
Procedure: as §1, §2

| SMILES | MHK [1] [mg/L] | MHK [2] [mg/L] | MHK [3] [mg/L] | MHK [4] [mg/L] | MHK [5] [mg/L] | MHK [6] [mg/L] | MHK [7] [mg/L] | MHK [8] [mg/L] | MHK [9] [mg/L] | MHK [10] [mg/L] | MHK [11] [mg/L] | MHK [12] [mg/L] | MHK [13] [mg/L] | MHK [14] [mg/L] | MHK [15] [mg/L] | MHK [16] [mg/L] | MHK [17] [mg/L] | MHK [18] [mg/L] | MHK [19] [mg/L] | MHK [20] [mg/L] | also measured |
| --- | --- | --- | --- | --- | --- | --- | --- | --- | --- | --- | --- | --- | --- | --- | --- | --- | --- | --- | --- | --- | --- |
| COc1c(NC(=O)c2ccc(NC(=O)c3ccc(NC(=O)[C@H](Cc4c[nH]cn4)NC(=O)c4ccc(NC(=O)/C(C)=C/c5ccc(O)cc5)cc4)cc3)c(OC)c2O)ccc(C(=O)O)c1O [Compound 1, L-His-albicidin] | 16 | 2 | 32 | 4 | 32 | 32 | 32 | 32 | 32 | 32 | 0.5 | 2 | 0.063 | 0.5 | 0.25 | 4 | 32 | 32 | 32 | 32 | MHK [21]: 32 mg/L; MHK [22]: 32 mg/L; MHK [23]: 2 mg/L; MHK [24]: 32 mg/L; MHK [25]: 4 mg/L; MHK [26]: 8 mg/L; MHK [27]: 8 mg/L; MHK [28]: 32 mg/L; MHK [29]: 8 mg/L; MHK [30]: 4 mg/L |
| COc1c(NC(=O)c2ccc(NC(=O)c3ccc(NC(=O)[C@H](CN(C)C)NC(=O)c4ccc(NC(=O)/C(C)=C/c5ccc(O)cc5)cc4)cc3)c(OC)c2O)ccc(C(=O)O)c1O [Compound 2, L-DMDAP-Albicidin] | 32 | 32 | 32 | 32 | 32 | 32 | 32 | 32 | 32 | 32 | 32 | 32 | 0.125 | 32 | 32 | 32 | 32 | 32 | 32 | 32 | MHK [21]: 32 mg/L; MHK [22]: 32 mg/L; MHK [23]: 32 mg/L; MHK [24]: 32 mg/L; MHK [25]: 32 mg/L; MHK [26]: 32 mg/L; MHK [27]: 32 mg/L; MHK [28]: 32 mg/L; MHK [29]: 32 mg/L; MHK [30]: 32 mg/L |
| COc1c(NC(=O)c2ccc(NC(=O)c3ccc(NC(=O)C(Cc4c[nH]nn4)NC(=O)c4ccc(NC(=O)/C(C)=C/c5ccc(O)cc5)cc4)cc3)c(OC)c2O)ccc(C(=O)O)c1O [Compound 3, L-Azahis-Albicidin] | 16 | 1 | 32 | 4 | 4 | 32 | 32 | 8 | 8 | 8 | 0.063 | 0.25 | 0.008 | 0.063 | 0.063 | 0.5 | 8 | 32 | 32 | 32 | MHK [21]: 32 mg/L; MHK [22]: 32 mg/L; MHK [23]: 1 mg/L; MHK [24]: 8 mg/L; MHK [25]: 0.5 mg/L; MHK [26]: 4 mg/L; MHK [27]: 0.5 mg/L; MHK [28]: 2 mg/L; MHK [29]: 0.5 mg/L; MHK [30]: 0.125 mg/L |
| COc1c(NC(=O)c2ccc(NC(=O)c3ccc(NC(=O)[C@@H](CN(C)C)NC(=O)c4ccc(NC(=O)/C(C)=C/c5ccc(O)cc5)cc4)cc3)c(OC)c2O)ccc(C(=O)O)c1O [Compound 16, D-DMDAP-Albicidin] | 32 | 32 | 32 | 32 | 32 | 32 | 32 | 32 | 32 | 32 | 32 | 32 | 16 | 32 | 32 | 32 | 32 | 32 | 32 | 32 | MHK [21]: 32 mg/L; MHK [22]: 32 mg/L; MHK [23]: 32 mg/L; MHK [24]: 32 mg/L; MHK [25]: 32 mg/L; MHK [26]: 32 mg/L; MHK [27]: 32 mg/L; MHK [28]: 32 mg/L; MHK [29]: 32 mg/L; MHK [30]: 32 mg/L |
